Laboratory results taken from patent publication US20030220524A1, “Sulfur containing compounds” (priority 2000, published 2003).

Key:
Format in all cases: cell-based, human
[1] = tested on: KK leukemic cell line; assay: Fixed propidium iodide staining, flow cytometry; conditions: 48 h
Method: (§1) Adherent cell lines were plated at 35×10^4 cells/60 cm^2 dish the day before exposure to compound. Suspension cells were seeded at 25×10^4 cells/mL in a 6 well dish (Falcon) the day of exposure to compound. Mononucleated, T-cell depleted normal bone marrow cells were seeded at 50×10^4 cells/mL in a 6 well dish the day of exposure to compound. Cells were exposed to solvent control or approximate MTT50 and MTT30 concentrations of the compound. After 48 h of exposure to the compound, cells were harvested, fixed in 80% ethanol for 1 h on ice and labeled with 50 μg/mL propidium iodide (Sigma). Approximately 10^6 cells were analyzed using a XL-MCL flow cytometer (Coulter Corporation, Miami, Fla.) and a FACScalibar cytometer (Becton Dickinson, San Jose, Calif.). Profiles shown are a representative.
as §1, with “cm2” for “cm^2”, “concentrations.” for “concentrations of the compound.”, “representative. Cell viability counts and Pi staining were performed as previously described (Dimitroulakos, J, Nohynek, D, Backway, K L, Hedley, D W, Yeger, H, Freedman, M H, Minden, M D and Penn, L Z: Increased sensitivity of acute myeloid leukemias to lovastatin-induced apoptosis: A potential therapeutic approach. Blood 93: 1308-18, 1999).” for “representative.”

[2] = tested on: leukemic cells; assay: Trypan blue exclusion in combination with MTT activity; conditions: in words
Method: Adherent cells were seeded at 67×10^3 cells/mL in a 96 well plate (Falcon, Mississauga, Ontario) the day prior to exposure to compound. Suspension cells were seeded at 27×10^4 cells/mL in a 96 well plate the day of exposure to compound. Mononucleated, T-cell depleted normal bone marrow cells were seeded at 67×10^4 cells/mL in a 96 well plate the day of exposure to compound. Compounds and solvent control were added to cells and assayed in triplicate or sextuplet. Following 48 h of incubation at 37° C. with 5% CO2, 40 μL of a 5 mg/mL solution of 3-[4,5-dimethylthiazol-2-yl]-2,5-diphenyltetrazolium bromide (MTT) substrate (Sigma) in Dulbecco's phosphate-buffered saline (D-PBS) was added. After 4 h of incubation at 37° C. with 5% CO2, the resulting violet formazan precipitate was solubilized by the addition of 80 μL of a 0.01 M HCI, 10% sodium dodecyl sulfate (SDS; Sigma) solution overnight at 37° C. with 5% CO2. The plates were then analyzed using the BioRad Benchmark Microplate Reader (BioRad Laboratories, Hercules, Calif.) at 570 nm to determine the optical density of the samples. MTT data was analyzed using Prism 3.0 (GraphPad Software, Inc., San Diego, Calif.) by the Chou-Talalay method. MTT graphs shown are a representative experiment.
Leukemic cells were seeded in a 24-well plate (Nunc, Naperville, Ill.) at 25×10^4 cells/mL. Cells were then exposed in triplicate to solvent control or the approximate MTT50 concentration of compounds B, C, F, G or H at 10 μg/mL, or I at 5 μg/mL. The final solvent volume was 2.4 μL/mL of media for trypan blue exclusion assay. The compound was replenished after 48 h of treatment. Cell counts were evaluated using a 1:1 dilution of cell suspension in trypan blue (Gibco-BRL, Mississauga, Ontario, Canada). Viable and nonviable cells were counted using a hemocytometer. Cells which excluded trypan blue were counted as viable whereas stained cells were counted as nonviable. Trypan blue exclusion graphs shown are a representative experiment.
Leukemic cells were seeded in a 24-well plate (Nunc, Naperville, Ill.) at 25×10^4 cells/mL. Cells were then exposed in triplicate to solvent control or the approximate MTT50 concentration of compounds F (10 μg/mL), G (10 μg/mL) or 1 (5 μg/mL). The final solvent volume was 2.4 μL/mL of media for trypan blue exclusion assay. The compound was replenished after 48 h of treatment. Cell counts were evaluated using a 1:1 dilution of cell suspension in trypan blue (Gibco-BRL, Mississauga, Ontario, Canada). Viable and nonviable cells were counted using a hemocytometer. Cells which excluded trypan blue were counted as viable whereas stained cells were counted as nonviable. Trypan blue exclusion graphs shown are a representative experiment.

[3] = tested on: WI38 non-transformed diploid fibroblasts; assay: Fixed propidium iodide staining, flow cytometry; conditions: 48 h
Method: as §1
as §1, with “cm2” for “cm^2”, “concentrations.” for “concentrations of the compound.”, “representative. Cell viability counts and Pi staining were performed as previously described (Dimitroulakos, J, Nohynek, D, Backway, K L, Hedley, D W, Yeger, H, Freedman, M H, Minden, M D and Penn, L Z: Increased sensitivity of acute myeloid leukemias to lovastatin-induced apoptosis: A potential therapeutic approach. Blood 93: 1308-18, 1999).” for “representative.”

[4] = dose 50 uM (229 ug/mL) as printed

Question: `CSCSCS(C)(=O)=O` [B] was tested. Which “% pre-G1 (Fixed PI)” value ([1]; dose 107 uM (20 ug/mL)) did it give?
Answer: The value was 1.1%.

Question: For `CS(C)(=O)=O` [Compound A, dimethyl sulfone], which “% pre-G1 (Fixed PI)” value ([1]; dose 212 uM (20 ug/mL)) is on record?
Answer: Its value is 1.1%.

Question: Which results are given for `CSSCS(=O)(=O)c1ccc(C)cc1` [Compound C, α-p-toluenesulfonyl dimethyl disulphide]?
Answer: % pre-G1 (Fixed PI) ([1]; dose 40.3 uM (20 ug/mL)): 20.6%; Cytotoxicity to the leukemic cells (trypan blue exclusion with MTT activity) [2]: cytotoxic to the leukemic cells in a dose-dependent manner

Question: Which “% G2 increase (Fixed PI)” value ([1]; dose 50 uM) does the source give for `CSCSSC` [Compound N, 2,3,5-trithiahexane] here?
Answer: The value was “+4%”.

Question: And the “% pre-G1 (Fixed PI)” value ([1]; dose 50 uM)?
Answer: Its value is 13%.

Question: What about the “% G2 increase (Fixed PI)” value ([1]; dose 150 uM) of the same compound?
Answer: The value was “+5%”.

Question: What about the “% pre-G1 (Fixed PI)” value ([1]; dose 150 uM) of the same compound?
Answer: Its value is 10%.

Question: And the “% G2 increase (Fixed PI)” value ([3]; dose 50 uM)?
Answer: Its value is “+7%”.

Question: And the “% pre-G1 (Fixed PI)” value ([3]; dose 50 uM)?
Answer: Its value is 2%.

Question: And the “% G2 increase (Fixed PI)” value ([3]; dose 150 uM)?
Answer: Its value is “+25%”.

Question: And the “% pre-G1 (Fixed PI)” value ([3]; dose 150 uM)?
Answer: The value was 4%.

Question: Which results are given for `CSSCC(=O)c1ccccc1` [Compound P, phenacyl methyl disulphide]?
Answer: % pre-G1 (Fixed PI) ([3]; dose 50 uM): 2%; % pre-G1 (Fixed PI) ([3]; dose 150 uM): 52%

Question: Which “% pre-G1 (Fixed PI)” value ([1]; dose 20 uM) does the source give for `CCC(=O)OCSSc1ccccc1` [Compound Q, 1-phenyl-1,2-dithiapropyl propionate] here?
Answer: The value was 15%.

Question: What about the “% G2 increase (Fixed PI)” value ([1]; dose 40 uM) of the same compound?
Answer: The value was −4%.

Question: What about the “% pre-G1 (Fixed PI)” value ([1]; dose 40 uM) of the same compound?
Answer: The value was 43%.

Question: What about the “% G2 increase (Fixed PI)” value ([3]; dose 20 uM) of the same compound?
Answer: The value was “+3%”.

Question: What about the “% pre-G1 (Fixed PI)” value ([3]; dose 20 uM) of the same compound?
Answer: Its value is 1%.

Question: And the “% G2 increase (Fixed PI)” value ([3]; dose 40 uM)?
Answer: The value was “+10%”.

Question: And the “% pre-G1 (Fixed PI)” value ([3]; dose 40 uM)?
Answer: Its value is 1%.

Question: How did the “% pre-G1 (Fixed PI)” value ([1]; dose 91.6 uM (20 ug/mL)) turn out when `c1ccc(SSc2ccccc2)cc1` [D, diphenyl disulphide] was run?
Answer: The value was 33.9%.

Question: What about the “Cytotoxicity to the leukemic cells (trypan blue exclusion with MTT activity)” value (shortened to “Cytotoxicity to the leukemic cells”) [2] of the same compound?
Answer: The value was “cytotoxic to the leukemic cells in a dose-dependent manner”.

Question: `CS(=O)(=O)CSSc1ccccc1` [E, 5-phenyl-2,4,5-trithiapentane 2,2-dioxide] was tested. Which “% pre-G1 (Fixed PI)” value ([1]; dose 85.3 uM (20 ug/mL)) did it give?
Answer: The value was 34.7%.

Question: What about the “Cytotoxicity to the leukemic cells” value [2] of the same compound?
Answer: Its value is “cytotoxic to the leukemic cells in a dose-dependent manner”.

Question: For `CSSCCS(C)(=O)=O` [F, 2,3,6-trithiaheptane 6,6,-dioxide], which “% pre-G1 (Fixed PI)” value ([1]; dose 91.6 uM (20 ug/mL)) is on record?
Answer: The value was 3.8%.

Question: What about the “% G2/M (Fixed PI)” value [3, 4] of the same compound?
Answer: Its value is 17.8%.

Question: And the “% pre-G1 (Fixed PI)” value [3, 4]?
Answer: Its value is 0.1%.

Question: And the “Cytotoxicity to the leukemic cells” value [2]?
Answer: The value was “cytotoxic to the leukemic cells in a dose-dependent manner”.

Question: How did the “% pre-G1 (Fixed PI)” value ([1]; dose 91.6 uM (20 ug/mL)) turn out when `CS(=O)(=O)CSCS(C)(=O)=O` [G, 2,4,6-trithiaheptane 2,2,6,6-tetraoxide] was run?
Answer: The value was 3.8%.

Question: Which “% pre-G1 (Fixed PI)” value ([1]; dose 133.4 uM (20 ug/mL)) does the source give for `COC(=O)CSSC` [H, methyl 3,4-dithiopentanoate] here?
Answer: Its value is 5.9%.

Question: What about the “% pre-G1 (Fixed PI)” value ([3]; dose 985 uM (150 ug/mL)) of the same compound?
Answer: Its value is 0.7%.

Question: What about the “Cytotoxicity to the leukemic cells” value [2] of the same compound?
Answer: Its value is “cytotoxic to the leukemic cells in a dose-dependent manner”.

Question: How did the “% pre-G1 (Fixed PI)” value ([1]; dose 65.7 uM (10 ug/mL)) turn out when `CSSCOC(C)=O` [I, 2,3-dithiabutyl acetate] was run?
Answer: Its value is 48.4%.

Question: And the “Cytotoxicity to the leukemic cells” value [2]?
Answer: Its value is “cytotoxic to the leukemic cells in a dose-dependent manner”.

Question: Which “% pre-G1 (Fixed PI)” value ([3]; dose 40 uM) does the source give for `CSSc1ccc([N+](=O)[O-])cc1` [M, methyl p-nitrophenyl disulphide] here?
Answer: Its value is 16%.

Question: What about the “% pre-G1 (Fixed PI)” value ([3]; dose 120 uM as printed) of the same compound?
Answer: Its value is 119%.
